ChEMBL document CHEMBL1201862, “PubChem BioAssay data set” (2004)
Calls of active or inactive are those of the source.

Legend:
[1] = target: T1, Replicative DNA helicase DnaB (Mycobacterium tuberculosis, UniProt P9WMR3); assay: DnaB intein splicing inhibitors, dose response, biochemical, cell-free fluorescence (AID 449749); assay type: functional
T1 sequence (P9WMR3 whole entry): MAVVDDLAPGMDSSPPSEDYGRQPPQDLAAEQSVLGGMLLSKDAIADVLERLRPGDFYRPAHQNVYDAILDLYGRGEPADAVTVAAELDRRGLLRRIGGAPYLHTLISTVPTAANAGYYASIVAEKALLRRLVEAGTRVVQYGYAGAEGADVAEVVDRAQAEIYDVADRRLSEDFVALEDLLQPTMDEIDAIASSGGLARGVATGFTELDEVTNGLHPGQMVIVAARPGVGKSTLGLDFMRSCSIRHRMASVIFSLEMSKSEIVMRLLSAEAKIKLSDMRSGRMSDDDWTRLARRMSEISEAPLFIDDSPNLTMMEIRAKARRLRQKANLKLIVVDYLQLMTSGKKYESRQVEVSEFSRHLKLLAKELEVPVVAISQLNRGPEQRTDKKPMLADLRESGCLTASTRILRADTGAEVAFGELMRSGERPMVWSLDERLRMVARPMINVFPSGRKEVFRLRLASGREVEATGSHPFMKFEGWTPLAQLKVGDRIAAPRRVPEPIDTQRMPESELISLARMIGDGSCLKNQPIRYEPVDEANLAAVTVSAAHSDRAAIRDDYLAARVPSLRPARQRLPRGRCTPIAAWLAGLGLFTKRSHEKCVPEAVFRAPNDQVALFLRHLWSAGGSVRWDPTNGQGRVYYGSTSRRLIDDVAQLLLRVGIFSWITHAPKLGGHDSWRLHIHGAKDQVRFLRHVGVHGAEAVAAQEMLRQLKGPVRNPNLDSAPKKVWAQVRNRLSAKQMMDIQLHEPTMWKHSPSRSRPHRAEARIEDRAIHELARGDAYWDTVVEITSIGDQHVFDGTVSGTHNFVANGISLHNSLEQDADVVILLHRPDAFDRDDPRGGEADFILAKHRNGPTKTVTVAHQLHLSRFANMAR

Protein RecA = target: T2, Protein RecA (Mycobacterium tuberculosis, UniProt P9WHJ3); assay: Fluorescence Cell-Free Homogeneous Dose Retest to Identify Inhibitors of RecA-Intein Splicing Activity. [Related pubchem assays (depositor defined):AID2097, AID2223, AID489010, AID492950]; assay type: functional
T2 sequence (P9WHJ3 whole entry): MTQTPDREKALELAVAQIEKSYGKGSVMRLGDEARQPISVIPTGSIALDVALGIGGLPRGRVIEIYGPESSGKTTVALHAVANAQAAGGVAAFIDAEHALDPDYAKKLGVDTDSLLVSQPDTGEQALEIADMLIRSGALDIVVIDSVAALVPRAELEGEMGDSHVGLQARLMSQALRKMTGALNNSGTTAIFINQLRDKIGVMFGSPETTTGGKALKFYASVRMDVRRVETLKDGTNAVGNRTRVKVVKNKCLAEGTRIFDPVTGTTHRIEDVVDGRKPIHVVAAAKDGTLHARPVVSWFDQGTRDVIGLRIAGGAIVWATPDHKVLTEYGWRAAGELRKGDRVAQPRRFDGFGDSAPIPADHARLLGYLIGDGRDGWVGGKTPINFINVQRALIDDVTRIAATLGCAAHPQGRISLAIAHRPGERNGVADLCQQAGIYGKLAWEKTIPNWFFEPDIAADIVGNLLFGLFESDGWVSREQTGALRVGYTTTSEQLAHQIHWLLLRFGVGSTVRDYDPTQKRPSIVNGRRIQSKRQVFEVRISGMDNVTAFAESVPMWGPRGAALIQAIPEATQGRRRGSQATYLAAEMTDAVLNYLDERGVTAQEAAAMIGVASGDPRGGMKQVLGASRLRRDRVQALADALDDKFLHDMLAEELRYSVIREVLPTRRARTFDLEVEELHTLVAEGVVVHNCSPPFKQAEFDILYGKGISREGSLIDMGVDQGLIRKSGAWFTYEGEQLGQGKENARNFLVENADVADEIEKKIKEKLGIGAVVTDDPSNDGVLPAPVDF

[2] = target: T3, Heat shock factor protein 1 (Mus musculus, UniProt P38532); assay: inhibition of MG132-induced HSE-luciferase signal, confirmation, cell-based, NIH3T3, luminescence, dose retest (AID 2382); assay type: functional;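 also: NIH3T3 fibroblasts with HSF1-driven luciferase reporter stressed by proteasome inhibitor MG132; luminescence from HSF1-driven luciferase expression after 8 hours of MG132 stress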
T3 sequence (P38532 whole entry): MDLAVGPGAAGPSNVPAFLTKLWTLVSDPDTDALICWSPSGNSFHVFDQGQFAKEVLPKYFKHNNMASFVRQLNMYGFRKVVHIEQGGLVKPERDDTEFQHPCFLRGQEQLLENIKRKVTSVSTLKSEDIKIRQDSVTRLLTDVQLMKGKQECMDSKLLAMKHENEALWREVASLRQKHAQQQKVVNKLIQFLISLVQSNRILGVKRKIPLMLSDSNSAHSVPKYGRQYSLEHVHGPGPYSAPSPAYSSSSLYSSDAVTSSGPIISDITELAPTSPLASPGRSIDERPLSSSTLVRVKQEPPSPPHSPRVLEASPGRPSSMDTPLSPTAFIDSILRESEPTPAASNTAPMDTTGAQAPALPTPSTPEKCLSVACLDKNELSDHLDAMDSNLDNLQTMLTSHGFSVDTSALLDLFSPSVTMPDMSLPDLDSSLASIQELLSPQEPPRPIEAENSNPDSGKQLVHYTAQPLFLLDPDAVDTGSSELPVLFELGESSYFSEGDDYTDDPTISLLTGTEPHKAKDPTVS

[3] = target: FAD-linked sulfhydryl oxidase ALR (Homo sapiens, UniProt P55789); assay: inhibitors of human ALR sulfhydryl oxidase, dose response, biochemical, H2O2 detection, luminescence, cherry-pick (AID 493248)
FAD-linked sulfhydryl oxidase ALR, sequence (P55789 whole entry): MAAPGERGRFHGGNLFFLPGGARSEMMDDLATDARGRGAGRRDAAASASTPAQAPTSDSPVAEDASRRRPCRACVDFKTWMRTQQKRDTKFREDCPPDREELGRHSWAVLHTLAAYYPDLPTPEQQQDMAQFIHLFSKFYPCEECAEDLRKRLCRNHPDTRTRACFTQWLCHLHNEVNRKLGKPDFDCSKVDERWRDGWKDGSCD

Cytochrome P450 2C19 = Cytochrome P450 2C19 (Homo sapiens, UniProt P33261); assay: Cytochrome panel assay with activity outcomes. Panel member name: p450-cyp2c19 Compounds with AC50 equal or less than 10 uM are considered active; assay type: functional
Cytochrome P450 2C19, sequence (P33261 whole entry): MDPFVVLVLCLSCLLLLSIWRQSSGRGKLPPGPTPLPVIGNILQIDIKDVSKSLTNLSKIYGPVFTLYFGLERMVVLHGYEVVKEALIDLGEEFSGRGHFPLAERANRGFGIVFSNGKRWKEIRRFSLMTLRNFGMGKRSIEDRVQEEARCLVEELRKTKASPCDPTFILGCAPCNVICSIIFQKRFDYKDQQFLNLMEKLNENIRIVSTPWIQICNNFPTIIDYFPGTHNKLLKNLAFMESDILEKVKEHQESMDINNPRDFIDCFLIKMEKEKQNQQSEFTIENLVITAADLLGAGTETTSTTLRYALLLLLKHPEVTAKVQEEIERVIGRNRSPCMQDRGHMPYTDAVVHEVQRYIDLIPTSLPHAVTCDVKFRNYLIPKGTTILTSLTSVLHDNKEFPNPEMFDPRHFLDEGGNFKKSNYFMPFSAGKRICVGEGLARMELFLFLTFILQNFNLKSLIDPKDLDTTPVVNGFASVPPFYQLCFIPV

Cytochrome P450 2C9 = Cytochrome P450 2C9 (Homo sapiens, UniProt P11712)
Cytochrome P450 2C9, sequence (P11712 whole entry): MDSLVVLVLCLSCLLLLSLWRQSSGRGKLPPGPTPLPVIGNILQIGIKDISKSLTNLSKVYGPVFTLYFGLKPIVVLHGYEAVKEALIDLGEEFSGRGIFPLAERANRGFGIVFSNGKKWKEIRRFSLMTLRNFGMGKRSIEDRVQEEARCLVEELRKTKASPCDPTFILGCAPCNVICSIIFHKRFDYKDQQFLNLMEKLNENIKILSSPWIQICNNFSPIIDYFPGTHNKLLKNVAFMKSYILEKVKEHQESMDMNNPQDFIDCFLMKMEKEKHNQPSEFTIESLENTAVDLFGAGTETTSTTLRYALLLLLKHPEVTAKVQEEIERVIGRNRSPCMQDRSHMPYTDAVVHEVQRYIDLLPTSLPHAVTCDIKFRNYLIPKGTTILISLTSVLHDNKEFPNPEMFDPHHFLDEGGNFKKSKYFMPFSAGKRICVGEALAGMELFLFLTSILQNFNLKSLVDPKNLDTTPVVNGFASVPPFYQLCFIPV

[4] = Shn3 3'UTR reporter inhibitors, dose response, cell-based, Clone20 osteoblasts, firefly luciferase, cherry-picked (AID 624132); assay type: functional;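 also: firefly luciferase luminescence from reporter carrying the Shn3 3'UTR in osteoblasts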
[5] = target: T4, Rac GTPase-activating protein 1 (Homo sapiens, UniProt Q9H0H5); assay: MgcRacGAP GTPase-activating activity inhibitors, confirmation, biochemical, ADP Hunter fluorescence, primary and confirmatory (AID 624330); assay type: functional
T4 sequence (Q9H0H5 whole entry): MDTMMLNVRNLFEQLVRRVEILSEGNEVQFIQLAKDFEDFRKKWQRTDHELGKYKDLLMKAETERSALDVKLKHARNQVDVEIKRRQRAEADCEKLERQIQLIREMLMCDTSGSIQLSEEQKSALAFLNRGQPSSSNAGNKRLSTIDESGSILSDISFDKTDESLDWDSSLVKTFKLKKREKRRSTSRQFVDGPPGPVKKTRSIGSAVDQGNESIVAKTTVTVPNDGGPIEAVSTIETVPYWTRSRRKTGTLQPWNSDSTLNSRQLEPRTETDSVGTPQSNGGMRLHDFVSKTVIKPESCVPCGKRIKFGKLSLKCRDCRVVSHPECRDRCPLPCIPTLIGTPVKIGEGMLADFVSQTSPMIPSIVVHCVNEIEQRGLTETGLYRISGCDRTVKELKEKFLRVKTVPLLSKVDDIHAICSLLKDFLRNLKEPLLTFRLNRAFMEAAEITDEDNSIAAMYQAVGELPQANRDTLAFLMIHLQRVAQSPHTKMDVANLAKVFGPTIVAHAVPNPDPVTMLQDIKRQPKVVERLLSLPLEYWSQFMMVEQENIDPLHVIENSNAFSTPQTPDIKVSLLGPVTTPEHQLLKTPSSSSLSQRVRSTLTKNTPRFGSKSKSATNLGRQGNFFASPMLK

[6] = NIH-3T3 fibroblast cytotoxicity, dose response, cytotoxicity control, cell-based, fluorescence, Alamar Blue, secondary assay (AID 2327); assay type: functional;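 also: NIH-3T3 mouse fibroblasts cultured with fluconazole at 8 µg/mL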
[7] = C. albicans growth with fluconazole, confirmation, fluorescence, retest (AID 2467); assay type: functional, cell-based

CCc1n[nH]c2c1C(c1ccsc1)C(C#N)=C(N)O2 (stereo not given)
AC50 [1]: 14.5 µM (active)
EC50 (Protein RecA): 9.87 µM (active)

Cc1ccc(S(=O)(=O)c2ccc(Oc3ccccc3)cc2)cc1
EC50 [2]: 21.5 µM (active)

Fc1ccc(Sc2nc(-c3ccccc3)nnc2C(F)(F)F)cc1
AC50 [1]: 1.45 µM (active)
EC50 (Protein RecA): 0.66 µM (active)

CCSc1nnc(NC(=O)c2cccc(S(=O)(=O)N(C)c3ccccc3)c2)s1
AC50 [3]: 2.75 µM (active)

Cc1ccc(NC(=O)CCN2C(=O)C3CCCCC3C2=O)cc1[N+](=O)[O-] (stereo not given)
EC50 [2]: > 195 µM (not active)

COc1nc(NC(C)C)nc(N(C#N)CN2C(=O)c3ccccc3S2(=O)=O)n1
AC50 [1]: 24.4 µM (active)
EC50 (Protein RecA): 26.4 µM (inconclusive)

CC(=O)N1CC[n+]2c(-c3ccc(Cl)cc3)csc21
AC50 [3]: 1.88 µM (active)

COc1ccc2nc(O)c(CN(Cc3cccs3)S(=O)(=O)c3c(C)ccc4nsnc34)cc2c1
EC50 [2]: 0.503 µM (active)

O=C(c1ccc2c(c1)OCO2)N1CCC2(CC1)OCCO2
EC50 [2]: > 195 µM (not active)

Cc1cc(=O)oc(C)c1C(=O)NCc1ccccc1
AC50 (Cytochrome P450 2C19; read-out: AC50): 39.8 µM (inconclusive)

CN(C)NC(=O)c1ccsc1NC(=O)c1ccc(S(=O)(=O)N2CCCC2)cc1
AC50 [3]: 0.835 µM (active)

Cc1ccc(C(c2c(C)n[nH]c2O)c2c(C)n[nH]c2O)cc1[N+](=O)[O-]
AC50 [1]: 0.442 µM (active)
EC50 (Protein RecA): 0.195 µM (active)

COc1ccc(C(=O)Nc2ccncc2)cc1[N+](=O)[O-]
AC50 [1]: > 380 µM (inactive)
EC50 (Protein RecA): > 380 µM (inactive)

O=C(O)c1c2ccccc2cc2ccccc12 [ANTHRACENE-9-CARBOXYLIC ACID]
AC50 (Cytochrome P450 2C19; read-out: AC50): 25.1 µM (inconclusive)

Cn1ccnc1 [1-METHYLIMIDAZOLE]
AC50 (Cytochrome P450 2C19): inconclusive

CCS(=O)(=O)c1nc(S(=O)(=O)c2ccc(C)cc2)c(N2CCC(C)CC2)s1
EC50 [2]: > 195 µM (not active)

CCS(=O)(=O)N1CCC(C(=O)NCc2cccnc2)CC1
AC50 (Cytochrome P450 2C19; read-out: AC50): 22.4 µM (inconclusive)
AC50 (Cytochrome P450 2C9): 11.2 µM (inconclusive)

CC(=O)Nc1ccc(S(=O)(=O)NC(C)C(=O)NCCc2ccc(F)cc2)cc1 (stereo not given)
AC50 [3]: 0.031 µM (active)

O=C1CCc2cccc(O)c2N1
AC50 [4]: 12.2 µM (active)

Cc1cc(N=Nc2ccc(Cl)cc2)cc(CN2CCCC2)c1O
EC50 [2]: > 195 µM (not active)

CC(=O)c1cccc(NC(=O)CSc2ncc(C(=O)Nc3ccccc3)c(=O)n2C)c1
AC50 [1]: > 380 µM (inconclusive)
EC50 (Protein RecA): 1.21 µM (active)

CC(C)NS(=O)(=O)c1ccc(OCC(=O)N2CCCC2)c(Cl)c1
EC50 [2]: > 195 µM (not active)

CN(C)c1ccc(NC(=O)CN2CCc3ccccc3C2)cc1
AC50 [3]: 2.23 µM (active)

O=C(NN=Cc1ccc(O)cc1)c1cc[n+](Cc2ccccc2)cc1
AC50 [3]: 2.05 µM (active)
IC50 [5]: 137 µM (active)

O=C(CN1CCN(c2ccccc2O)CC1)Nc1cccnc1Cl
AC50 [3]: 2.17 µM (active)

Cc1ccc(NNC(=O)c2ccno2)cc1C
EC50 [6]: > 160 µM (inactive)
EC50 [7]: 0.763 µM (active)
AC50 [3]: 0.439 µM (active)

CN(CC(=O)Nc1ccccc1Br)C(=O)c1cccn1C
EC50 [2]: > 195 µM (not active)

CCOC(=O)N1CCN(C(=O)CSCc2ccc(Cl)cc2)CC1
AC50 (Cytochrome P450 2C19; read-out: AC50): 17.8 µM (inconclusive)

CCC(=O)Oc1oc(-c2ccccc2)nc1/C=N/c1ccccc1OC
EC50 [2]: 10.3 µM (active)

O=C(Cc1ccccc1F)Nc1nc2ccccc2[nH]1
AC50 [1]: 0.0489 µM (inconclusive)
EC50 (Protein RecA): > 380 µM (inconclusive)

O=C(CNC1=NCCC1)c1ccc(Cl)cc1
AC50 [1]: 127 µM (active)
EC50 (Protein RecA): 23.1 µM (active)

CCOC(=O)C(C)c1ccc2cc(OC)ccc2c1 (stereo not given)
EC50 [2]: > 195 µM (not active)

CC(NS(C)(=O)=O)C(c1cccs1)N1CCN(c2ccccc2)CC1 (stereo not given)
AC50 [3]: 2.93 µM (active)

COc1ccccc1/C=C/C1(C(=O)NC2CCCC2)CC(=O)N1c1ccc(C)cc1 (stereo not given)
AC50 [1]: 9.29 µM (active)
EC50 (Protein RecA): 8.52 µM (active)

C/C(=C\c1ccc(N)cc1)c1nc2ccccc2[nH]1
AC50 [3]: 0.321 µM (active)

N=C(NC(=O)c1ccc(Cl)cc1)Nc1nc2ccccc2o1
EC50 [2]: > 195 µM (not active)

COc1cccc(NC(=S)N(CCC(C)C)C2CCN(C(C)=O)CC2)c1
EC50 [2]: > 195 µM (not active)
